# Entries after “also recorded” stand apart in the source; their conditions may differ.
# Assays:
# [1] = target: T1, RalB-GDP (Homo sapiens, UniProt P11234, Q72L); experiment: TROSY 15N-HSQC NMR chemical shift perturbation; type: binding; settings: 100 μM RalB-GDP, 100 μM compound
# T1 construct: made in house
# T1 sequence (P11234 1-206 Q72L): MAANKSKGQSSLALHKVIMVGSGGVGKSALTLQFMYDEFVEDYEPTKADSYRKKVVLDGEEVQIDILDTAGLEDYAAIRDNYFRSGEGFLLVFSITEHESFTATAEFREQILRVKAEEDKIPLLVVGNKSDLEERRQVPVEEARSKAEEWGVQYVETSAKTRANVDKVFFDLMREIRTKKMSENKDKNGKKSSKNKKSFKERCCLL
# Source text: (§1) To confirm the direct binding of the compounds to the target, we used TROSY ^15N-HSQC (Transverse Relaxation-Optimized Heteronuclear Single Quantum Coherence) NMR. RalB (Q72L mutant) in a pET16b (Novagen) plasmid was a kind gift from Dr. Darerca Owen (Cambridge University). RalB was purified with additional steps for loading with GDP or the non-hydrolyzable form of GTP, GMPNPP (GNP, Sigma-Aldrich). Uniform ^13C^15N-double labeled protein was produced in M9 media supplemented with ^15N-NH4Cl and ^13C-glucose. Samples were prepared for NMR in 50 mM sodium phosphate, pH 7.6, 100 mM NaCl and 1 mM MgCl2. All NMR experiments were recorded on an Agilent 900 MHz system at 25° C. Resonance assignments for the RalB-GNP complex were obtained from previously published studies deposited in Biological Magnetic Resonance Bank (BMRB, code: 15230). Chemical shift assignments of the RalB-GDP complex were obtained independently using HNCACB, CBCA(CO)NH and COCNH-TOCSY experiments. All NMR data was processed using NMRPipe and analyzed using CCPNMR analysis program. Assignment were obtained by automated assignment using PINE followed by manual verification. ^15N-HSQC experiments were used to monitor amide shifts from the RalB protein (100 μM) following the addition of compound reconstituted in deuterated DMSO. DMSO concentrations in the final sample were 0.5% or 1%; control samples were made with 0.5% or 1% deuterated DMSO and all samples containing compounds were compared to their corresponding […] control.
# (§2) Because only the NMR structure of RalB in complex with GNP has been solved (PDB code 2KE5, BMRB entry 15230), we focused on this isoform. The ^15N-HSQC NMR spectrum of RalB-GDP and RalB-GNP were first determined and the chemical shift differences were analyzed. NMR spectra were then recorded in the presence of RBC8 or DMSO control. Binding of small molecules to the protein was monitored by the perturbation of ^15N-HSQC protein amide peaks.
# (§3) A detailed NMR titration of the binding between BQU57 and RalB-GDP was carried out. […] In the absence of a crystal structure of RalB-GDP, a homology model was generated based on the sequence similarity to RalA-GDP and the residues that experienced chemical shift changes in the presence of drug was mapped onto this model (FIG. 3E).
# [2] = target: T2, RalB-GNP (Homo sapiens, UniProt P11234, Q72L); experiment: TROSY 15N-HSQC NMR chemical shift perturbation; type: binding; settings: 100 μM RalB-GNP, 100 μM compound
# T2 construct: made in house
# T2 sequence (P11234 1-206 Q72L): T1 sequence (P11234 1-206 Q72L)
# Source text: as §1, §2, §3
# [3] = tested on: H2122 human lung cancer cells; experiment: Cellular uptake, LC/MS-MS of cell lysates; type: in vitro ADME; settings: 10 μM, 1-60 min
# Procedure: To quantitate how well the test compounds get into cells, H2122 human lung cancer cells were seeded at 3×10^5 cells per well in 6-well plates and let sit for 16 h. Compounds (10 μM) were individually dosed in triplicate; cells were then collected into 500 μl ice-cold ACN:MeOH:H2O (1:1:1) at different time points (1, 5, 15, 30 and 60 min). Drug concentrations in cell lysates were then determined using LC/MS-MS methods as described with respect to the pharmacokinetic and pharmacodynamic studies in mice, described in detail in Example 5, below.
# [4] = Pharmacokinetics after single intraperitoneal injection; type: in vivo; settings: 50.0 mg/kg i.p., n = 3, nude mice
# Procedure: Inhibition of Ral activity and tumor growth were evaluated in human lung cancer mouse models. Pharmacokinetics (PK) of RBC8 and BQU57 were first analyzed in nude mice to test bioavailability. Following a single intraperitoneal injection (50 mg/Kg), blood samples were collected at time intervals from 0 to 5 h post-dose (9 time points).
# [5] = tested on: H2122 human lung cancer cells; experiment: H2122 xenograft tumor growth; type: in vivo, nude mice; settings: i.p. daily except weekends, initiated 24 h after inoculation; RBC8 50 mg/kg/d; BQU57 and BQU85 5, 10, 20, and 50 mg/kg/d
# Procedure: We next determined compound entry into tumor tissue. To do so, athymic nude mice (Ncr nu/nu; National Cancer Institute, Fredrick, Md.) were received at 5 to 6 weeks of age and were allowed to acclimate for 2 weeks in sterile micro isolator cages with constant temperature and humidity. Mice had free access to food and water. H2122 cells in log-phase growth were harvested on the day of use. Cells were suspended in un-supplemented RPMI 1640 medium and 0.1 mL (2×10^5 cells) was injected s.c. four sites per mice. For H358 xenografts, cells (5×10^6) were mixed with matrigel (20% final concentration) and 0.1 mL was inoculated s.c. per site. After cell inoculation, mice were monitored daily, weighed twice weekly and caliper measurements begun when tumors visible. Tumor volume was calculated by (L×W2)/2, where L is longer measurement of tumor and W is the smaller tumor measurement. Drug treatment started the day after inoculation. Compounds were dissolved in DMSO and injected i.p. daily except weekends at 10/20/50 mg/kg. […] The effect of the Ral inhibitors on xenograft tumor growth was then tested in nude mice. Mice were inoculated subcutaneously with H2122 human lung cancer cells and treated intraperitoneally with 50 mg/kg/d (except weekends) of RBC8 24 h post inoculation.
T1/2 [4],SMILES,binding to RalB-GDP by 15N-HSQC chemical shift changes [1],binding to RalB-GNP by 15N-HSQC chemical shift changes [2],cellular uptake [3],Co [4],"half-life ([4]; mouse, blood, ip)","AUC(0-t) ([4]; mouse, blood, ip, read-out: AUC0-5 hr)",xenograft tumor growth inhibition [5]
,"Cc1nn(C)c2c1C(c1ccc(C(F)(F)F)cc1)C(C#N)=C(N)O2 (stereo not shown) [BQU57, 6-amino-1,3-dimethyl-4-(4-(trifluoromethyl)phenyl)-1,4-dihydropyrano[2,3-c]pyrazole-5-carbonitrile]",binding to the predicted site,did not bind,readily get into cells,41.6 ± 5.1 µM,1.5 ± 0.11 h,28600 ± 2100 ng·h/mL,dose-dependent growth inhibition effects were observed; also recorded: inhibited xenograft tumor growth
0.58 ± 0.26 h,COc1ccc(OC)c(C2C(C#N)=C(N)Oc3n[nH]c(-c4ccc5ccccc5c4)c32)c1 (stereo not shown) [RBC8],showed changes in peak position of representative residues located in the allosteric site,did not bind,readily get into cells,41.2 ± 4.2 µM,,,inhibited xenograft tumor growth
